From patent US20240350542A1, “ANTICANCER T CELL THERAPY PRODUCT-ASSISTING COMPOSITION COMPRISING DEPLETING ANTI-CD4 MONOCLONAL ANTIBODY AND USE THEREOF” (NATIONAL CANCER CENTER, priority 2018, published 2024) come the findings set out here.

Like-named read-outs stand apart in the source and are kept apart here.

Data set [1] has as its system inguinal lymph node and spleen cell number. On the procedure: (§1) Specifically, 2×10^5 B16-F10 melanoma cancer cells were subcutaneously injected into the dorsal area of a C57BL/6 mouse to induce the formation of cancer tissue. At the same time, aPmel-1 was prepared in the same manner as in Example 1. aPmel-1 and IL-2 were administered in the same manner as in Example 1, and transient immunodeficiency was induced by intraperitoneally injecting 150, 200 and 300 mg/kg of cyclophosphamide (CTX) two days before the aPmel-1 administration. In addition, to confirm a period of maintaining transient immunodeficiency according to the dose of CTX, 150, 200 and 300 mg/kg of CTX was intraperitoneally injected into C57BL/6 mice once, and an inguinal lymph node and the spleen of the mice were collected, followed by single cell suspension and then counting a cell number.

Data set [2] deals with B16-F10 melanoma cancer cells. On the procedure: as §1

On to `O=P1(N(CCCl)CCCl)NCCCO1` (stereo not drawn) [CTX, cyclophosphamide], for which, in data set [1] (C57BL/6, 150 mg/kg CTX), the transient immunodeficiency effect result is “insignificant”. For the same compound, the “period the immunodeficiency effect was maintained” value in data set [1] (C57BL/6, 200 mg/kg CTX intraperitoneally once) was “approximately 2 weeks”. Also, the “toxicity to the mouse” value in data set [2] (300 mg/kg or more of CTX) is listed as “can be toxic to the mouse, leading to the death of the mouse”. In addition, the survival of mouse entry in data set [2] (C57BL/6, 150 mg/kg CTX only) is “up to 35 days”; in data set [2] (C57BL/6, 200 mg/kg CTX only), “up to 45 days”; in data set [2] (C57BL/6, 300 mg/kg CTX only), “up to 60 days”. The “growth of cancer tissue” value in data set [2] (C57BL/6, 150 mg/kg CTX only, vs NT) is on record as “cancer tissue grew more slowly”; in data set [2] (C57BL/6, 200 mg/kg CTX only), “slower growth of cancer tissue than the 150 mg/kg CTX-administered mouse”; in data set [2] (C57BL/6, 300 mg/kg CTX only), “slower growth of cancer tissue than when 200 mg/kg CTX-administered mouse”.
